The target in the test is T1, 5α-reductase (Homo sapiens, UniProt P18405).
T1 construct: host or cells: Hs68 human genital skin fibroblasts
T1 sequence (P18405 1-259): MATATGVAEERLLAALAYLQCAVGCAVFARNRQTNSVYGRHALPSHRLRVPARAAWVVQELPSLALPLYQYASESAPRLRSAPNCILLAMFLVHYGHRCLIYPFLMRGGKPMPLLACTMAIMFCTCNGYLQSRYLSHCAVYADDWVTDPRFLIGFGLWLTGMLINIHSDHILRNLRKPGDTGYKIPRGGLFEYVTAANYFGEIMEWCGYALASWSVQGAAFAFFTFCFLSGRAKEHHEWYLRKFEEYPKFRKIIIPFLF
Kind of test: Inhibition of 5α-reductase activity (testosterone to 5α-dihydrotestosterone conversion) in Hs68 human genital skin fibroblasts. The format is cell-based. Particulars: 12 μM testosterone substrate, four hours; for inhibition at 1 µM: 1.00 μM test compound; for inhibition at 0.316 µM: 0.316 μM test compound; for inhibition at 15 µM: 15.00 μM test compound. How it is done: Cell Culture:5α-Reductase activity was measured using Hs68 human genital skin fibroblasts which were originally purchased from the American Type Culture Collection (Rockville, Md.). The cells were grown in Dulbecco's Modified Eagle's Medium (DMEM) plus 10% stripped fetal bovine serum which was supplemented with amphotericin B (0.25 mg/ml) and gentamicin (25.0 mg/ml) (GIBCO, Grand Island, N.Y.). The serum was stripped of endogenous steroids by incubation with dextran-coated charcoal prior to its addition to the media. The cells were maintained at 37° C. in an atmosphere of 95% air, 5% CO2 and were passaged every 7-10 days by exposure to a trypsin-EDTA solution (0.025% trypsin, 0.265 mM EDTA). Prior to the assay the Hs68 cells were harvested and plated in Falcon 6-well plates (Becton Dickinson Labware, Lincoln Park, N.J.) at a density of 6×10^4 cells per well. The cells were allowed to grow for 4-5 days or until they reached approximately 80% confluence.
Assay Method I:The substrate was prepared by dissolving unlabeled testosterone (Sigma Chemical Co., St. Louis, Mo.) in absolute ethanol followed by the addition of [7-^3 H (N)]-testosterone (23.3 Ci/mmole, New England Nuclear, Boston, Mass.). The steroid solution was taken to dryness under a stream of nitrogen and then reconstituted in media.
Assay Method II:The substrate used for this method was [^14 C]-testosterone (50 mCi/mmol) (New England Nuclear, Boston, Mass.). An aliquot of the substrate was taken to dryness under a stream of nitrogen. After the addition of 30 μl of ethanol, the testosterone was dissolved in an appropriate volume of media.
Sample Preparation:The test compounds were brought up in absolute ethanol in order to achieve the desired concentration. Subsequent dilutions of the test compounds with media were performed by the Biomek 1000 Automated Laboratory Workstation (Beckman Instruments, Palo Alto, Calif.). The existing media in the sample wells was aspirated and replaced with fresh media. Test compound was then added to the wells followed by the addition of 0.5 ml of substrate. The volume of the incubation mixture was maintained at 2.0 ml. The final substrate concentration was 12 μM. The concentration of the test compounds ranged from 0.001-150 μM. An additional three wells (background) containing media and substrate but no cells were also included to account for the non-enzymatic metabolism of the substrate. The plates were returned to the incubator and incubated for four hours.
At the end of the incubation the media was collected and transferred to an extraction tube containing 5 ml of toluene-ethanol (9:1), to which has been added 20-250 μg each. of unlabeled carrier steroids (estriol, estradiol, estrone, 5α-androstan-3α,17β-diol, 5α-androstan-3β,17β-diol, -androstene-3,17-dione, 5α-androstan-3,17-dione, testosterone, and 5α-dihydrotestosterone) (Steraloids, Inc., Wilton, N.H.). In the case of Assay Method I the extraction tube also contained 1,000 and 10,000 dpm of [4-^14 C]-dihydrotestosterone (50-60 mCi/mmol) and [4-^14 C]-testosterone (50 mCi/mmol) (New England Nuclear, Boston, Mass.), respectively. The [^14 C]-steroids were included as recovery standards to quantify procedural losses. A small amount of NaCl was also added to the extraction tubes to prevent foaming. The samples were vortexed for approximately 30 seconds and then centrifuged for 10 minutes at 500×g. The organic phase was collected and the samples taken to dryness, redissolved in dichloromethane-methanol (9:1) and were analyzed by thin layer chromatography using one of the methods described below.
Chromatography Method I (two-dimensional):The extracted samples were appled to silica gel 60F254, 0.25 mm thick, thin layer chromatography plates (EM Science, Cincinnati, Ohio). The plates were developed in the first dimension with a solvent system containing dichloromethaneethyl acetate-methanol-acetic acid (160:38:1.5:0.5, Mallinckrodt Inc., Paris, Ky.).

For `CN1C(=O)CC[C@H]2c3ccc(Cl)cc3CC[C@@H]21` (relative stereo) [Example 6, trans-dl-8-chloro-4-methyl-1,2,3,4,4a,5,6,10b-octahydrobenzo[f]quinolin-3-one], testing at 1 µM gave an inhibition of 100%.
The molecule `C[C@@H]1C[C@@H]2c3ccc(Cl)cc3CC[C@H]2N(C)C1=O` (relative stereo) [Example 26A, trans-dl-8-chloro-2-(α-methyl)-4-methyl-1,2,3,4,4a,5,6,10b-octahydrobenzo[f]quinolin-3-one] had an inhibition at 0.316 µM of 82.6%.
`C[C@]12CCC(=O)N[C@@H]1CCc1cc(Cl)ccc12` (relative stereo) [Example 40, Trans-8-chloro-10b-methyl-1,2,3,4,4a,5,6,10-octhydrobenzo[f]-quinolin-3-one] returned an inhibition at 0.316 µM of 25.6%.
`O=C1CC[C@H]2c3cc([N+](=O)[O-])ccc3CC[C@@H]2N1` (relative stereo) [Example 46, trans-dl-9-nitro-1,2,3,4,4a,5,6,10b-octahydrobenzo[f]quinolin-3-one] came in with an inhibition at 15 µM of 69.9%.
For `CN1C(=O)CC[C@@]2(C)c3ccccc3CC[C@H]12` (relative stereo) [Example 37, trans-dl-4,10b-dimethyl-1,2,3,4,4a,5,6,10b-octahydrobenzo[f]quinolin-3-one], the inhibition at 1 µM stood at 40%.
Same read-out and setting: in the case of `CN1C(=O)CC[C@]2(C)c3ccc(Cl)cc3CC[C@H]12` (relative stereo) [Example 35, cis-dl-8-chloro-4,10b-dimethyl-1,2,3,4,4a,5,6,10b-octahydrobenzo[f]quinolin-3-one] it was 76.2%.
On to `C[C@]12CCC(=O)N[C@H]1CCc1cc(Cl)ccc12` (relative stereo) [Example 41, cis-8-chloro-10b-methyl-1,2,3,4,4a,5,6,10-octahydrobenzo[f]quinolin-3-one], for which testing at 15 µM gave an inhibition of 58.4%.
Take `C[C@H]1C[C@@H]2c3ccc(Cl)cc3CC[C@H]2N(C)C1=O` (relative stereo) [Example 26B, trans-dl-8-chloro-2-(β-methyl)-4-methyl-1,2,3,4,4a,5,6,10b-octahydrobenzo[f]quinolin-3-one]: 0.316 µM produced 76.4% inhibition.
The same measure, in the same setting: as for `CN1C(=O)CC[C@H]2c3ccc(Br)cc3C(C)(C)C[C@@H]21` (relative stereo) [Example 28, trans-dl-8-bromo-4,6,6-trimethyl-1,2,3,4,4a,5,6,10b-ocathydrobenzo[f]quinolin-3-one], the figure is 78%.
In the case of `CN1C(=O)CC[C@H]2c3ccccc3CC[C@H]21` (relative stereo) [Example 13, cis-dl-4-methyl-1,2,3,4,4a,5,6,10b-octahydrobenzo[f]quinolin-3-one], the inhibition at 1 µM turned out to be 32%.
`CN1C(=O)CC[C@H]2c3ccccc3CC[C@@H]21` (relative stereo) [Example 12, trans-dl-4-methyl-1,2,3,4,4a,5,6,10b-octahydrobenzo[f]quinolin-3-one] had an inhibition at 1 µM of 78.7%.
The molecule `COc1ccc(CN2C(=O)CC[C@@]3(C)c4ccc(Cl)cc4CC[C@H]23)cc1` (relative stereo) [Example 44, Trans-4-(4-methoxybenzyl)-8-chloro-10b-methyl-1,2,3,4,4a,5,6,10b-octahydrobenzo[f]quinolin-3-one] yielded an inhibition at 0.316 µM of 5.7%.
With `CN1C(=O)CC[C@H]2c3ccc(Br)cc3C(C)(C)C[C@H]21` (relative stereo) [Example 29, cis-dl-8-bromo-4,6,6-trimethyl-1,2,3,4,4a,5,6,10b-octahydrobenzo[f]quinolin-3-one], the inhibition at 0.316 µM was determined as 56.1%.

The record behind these values is US5541190A, “Benzo(F)quinolinones” (priority 1995, dated 1996).
